{Fluorescein} = fluorescein label; {Biotin} = biotin label
Legend:
[1] = test system: Oligonucleotide 102; assay: measurement of DNA hybridization using fluorescence polarization (FP) on the microfluidic device; format: binding; conditions: addition of oligonucleotide to the fluorescein-labeled 102
Text: (A) FP can be used to measure the binding of 2 DNA molecules on the microfluidic device. (B) Oligonucleotide 102 is complement to both 101 and 103. […] Oligonucleotides; #101:[NT] ID NO: 1); #102: [NT] ID NO: 2); #103: [NT] NO: 3).

[2] = target: Steptaviden (Streptomyces avidinii, UniProt P22629); assay: fluorescence polarization measurements in droplets inside the microfluidic device (biotin/streptavidin binding); conditions: droplets 65 to 75 um, 10 mM Borate pH 9, data normalized so P(Fluorescein)=0.0
Sequence of Steptaviden (P22629 25-183): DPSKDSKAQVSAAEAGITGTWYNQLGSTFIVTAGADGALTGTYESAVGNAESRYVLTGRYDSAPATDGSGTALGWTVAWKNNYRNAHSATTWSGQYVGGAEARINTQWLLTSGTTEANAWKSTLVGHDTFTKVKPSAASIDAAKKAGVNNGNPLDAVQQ
Text: In addition to molecular beacons and Taqman, the devices of the present invention can be used to cany out fluorescence polarization as described herein. Most SNP assays can be adapted for both mini-sequencing and gene expression analysis. A series of fluorescence polarization measurements have been made inside a microfluidic device according to the present invention while looking at droplets containing Fluorescein, Fluorescein bound to biotin, and Fluorescein bound to biotin+Steptaviden. The fluorescence signal was split into two orthogonal polarizations: one parallel to the laser excitation polarization, and one perpendicular to the polarization. These signal were collected and analyzed to determine the change in polarization of the fluorescence for each of these binding conditions.
The Polarization is calculated from:
[formula] Where V=fluorescence signal polarized parallel to laser excitation polarization, and H=fluorescence signal polarized perpendicular.
The fluorescence station was modified to include cleanup polarizer for the laser and a polarizing beamsplitter with cleanup polarizers for collection. The two resulting fluorescence channels collect light with orthogonal polarizations (“Vertical” is parallel to the laser polarization, “Horizontal” is perpendicular to the laser polarization). […]

| Molecule | shift of mP value of labeled 102, indicative of binding [1] | Polarization (mean of histogram grouping) [2] [mP] |
| --- | --- | --- |
| 103: 5′ Fluorescein-labeled oligonucleotide, SEQ ID NO: 3 (DNA CTAAACTCCTGATTTATGCTGCATCCATTTTGC; DNA, 5' {Fluorescein}, backbone not given here) [compound 103] | shifts the mP value |  |
| Biotinylated Fluorescein [Biotinalated Fluorescein] |  | 18.4 |
| 101: 5′ Biotin-labeled oligonucleotide, SEQ ID NO: 1 (nucleic acid, DNA, 5' {Biotin}, backbone not given here) DNA: ATCCGCCCCAGCAGCTGCCAGGCACAGCCCCTAAACTCCTGATTTATGCTGCATCCATTTTGC | shifts the mP value |  |

Reference: patent US12146134B2, “Microfluidic devices and methods of use in the formation and control of nanoreactors” (Bio-Rad Laboratories, Inc., priority 2006, dated 2024)
